We go through eight compounds from patent publication US20080269298A1, “Benzimidazol-1-YL-thiophene compounds for the treatment of cancer” (priority 2002, published 2008).

The test system of test [1] is colon (RKO) tumor cell line. Nature of the test: Methylene Blue Growth Inhibition Assay, RKO. The test is classed as cell-based. The following applies: Homo sapiens, 72 h, 3 days, read-out: MeB IC50. On the procedure: (§1) Normal Human foreskin fibroblasts (HFF) and human colon (HCT116, RKO), lung (H460), prostate (PC3), and breast tumor (MCF7) cell lines were cultured in high glucose DMEM (Life Technologies) containing 10% fetal bovine serum (FBS) at 37° C. in a humidified 10% CO2, 90% air incubator. Cells were harvested using trypsin/EDTA, counted using a haemocytometer, and plated in 100 μl of the appropriate media, at the following densities, in a 96-well tissue culture plate (Falcon 3075): HFF 5,000 cells/well, HCT116 3,000 cells/well, RKO 2,500 cells/well, H460 2,000 cells/well, PC3 8,000 cells/well, MCF7 4,000 cells/well. The next day, compounds were diluted in DMEM containing 100 μg/ml gentamicin, at twice the final required concentration, from 10 mM stock solutions in DMSO. 100μ/well of these dilutions were added to the 100 μl of media currently on the cell plates. Medium containing 0.6% DMSO was added to control wells. Compounds diluted in DMEM were added to all cell lines. The final concentration of DMSO in all wells was 0.3%. Cells were incubated at 37° C., 10% CO2 for 3 days. Medium was removed by aspiration. Cell biomass was estimated by staining cells with […] per well methylene blue (Sigma M9140, 0.5% in 50:50 ethanol:water), and incubation at room temperature for at least 30 minutes. Stain was removed, and the plates rinsed under a gentle stream of water, and air-dried. To release stain from the cells 100 μl of solubilization solution was added (1% N-lauroyl sarcosine, Sodium salt, Sigma L5125, in PBS), and plates were shaken gently for about 30 minutes. Optical density at 620 nm was measured on a microplate reader. Percent inhibition of cell growth was calculated relative to vehicle treated control wells. Concentration of compound that inhibits 50% of cell growth (IC50) was interpolated using nonlinear regression (Levenberg-Marquardt) and the equation, y=Vmax*(1-(x/(K+x)))+Y2, where “K” was equal to the IC50. In Table 1, +=10−>30 uM; ++=1−10 uM: +++=<1 uM.

In test [2] the test system is lung (H460) tumor cell line. Put plainly: Methylene Blue Growth Inhibition Assay, H460. The test is classed as cell-based. Conditions: Homo sapiens, NCI-H460, 72 h; Cell Line H460, 3 days; read-out: MeB IC50. On the procedure: as §1
In test [3] the test system is colon (HCT116) tumor cell line. Put plainly: Methylene Blue Growth Inhibition Assay, HCT116. Conditions: Homo sapiens, HCT-116, 72 h; Cell Line HCT116, 3 days; read-out: MeB IC50. The test is classed as cell-based. On the procedure:
as §1

The test system of test [4] is breast tumor (MCF7) cell line. Nature of the test: Methylene Blue Growth Inhibition Assay, MCF7. The test is classed as cell-based. The following applies: Homo sapiens, 72 h; Cell Line MCF7, 3 days; read-out: MeB IC50. On the procedure: as §1
The subject of test [5] is prostate (PC3) tumor cell line. Nature of the test: Methylene Blue Growth Inhibition Assay, PC3. The test is classed as cell-based. The following applies: Homo sapiens, 72 h; Cell Line PC3, 3 days; read-out: MeB IC50. As for the experimental part:
as §1

For a further test, the target named is T1, PLK1 kinase domain (Homo sapiens, UniProt P53350).
T1 construct: made in house; host or cells: baculovirus-infected T. ni insect cells
Nature of the test: Assay for Inhibition of PLK1 (SPA enzyme activity). The format is biochemical. The following applies: 2 μM ATP, read-out: Ave pIC50 PLK Enzyme Inhibition (converted). On the procedure:
All procedures were performed at 4° C. Cells were lysed in so mM HEPES, 200 mM NaCl, so mM imidazole, 5% glycerol; pH 7.5. The homogenate was centrifuged at 14K rpm in a SLA-1500 rotor for 1 hr and the supernatant filtered through a 1.2 micron filter. The supernatant was loaded onto a Nickel chelating Sepharose (Amersham Pharmacia) column and washed with lysis buffer. Protein was eluted using 20%, 30% and 100% buffer B steps where buffer B is 50 mM HEPES, 200 mM NaCl, 300 mM imidazole, 5% glycerol; pH 7.5. Fractions containing PLK were determined by SDS-PAGE. Fractions containing PLK were diluted five-fold with so mM HEPES, 1 mM DTT, 5% glycerol; pH 7.5, then loaded on an SP Sepharose (Amersham Pharmacia) column. After washing the column with so mM HEPES, 1 mM DTT, 5% glycerol; pH 7.5, PLK was step eluted with so mM HEPES, 1 mM DTT, 500 mM NaCl; 5% glycerol; pH 7.5. PLK was concentrated using a 10 kDa molecular weight cutoff membrane and then loaded onto a Superdex 200 gel filtration (Amersham Pharmacia) column equilibrated in 25 mM HEPES, 1 mM DTT, 500 mM NaCl, 5% glycerol; pH 7.5. Fractions containing PLK were determined by SDS-PAGE. PLK was pooled, aliquoted and stored at −80° C. Samples were quality controlled using mass spectrometry, N-terminal sequencing and amino acid analysis.
B. Enzyme activity+/−inhibitors was determined as follows:
Compounds were added to the plate (1 μl in […]). […] Reaction Mix B is prepared as follows at 4° C.: • Reaction Mix B (Enzyme Mix) • 25 mM HEPES, pH 7.2 • 15 mM MgCl2 • 0.15 mg/ml BSA • 2 mM DTT • 2-10 nM PLK1 kinase domain
Reaction Mix A (20 μl) is added per well. Reaction Mix B (20 μl) is added per well. Incubate 1.5 hrs. at RT. The enzymatic reaction is stopped with 175 μl of SPA/EDTA bead mix (29 mM EDTA, 2.5 mg/ml Streptavidin-coated SPA in Standard Dulbecco's PBS (without Mg^2+ and Ca^2+), 60 μM ATP). Plates are sealed spun (after a 1 hr incubation at RT) at 1,000×g for 7 min or settled overnight, then plates counted in Packard TopCount for 30 seconds/well.

Test [6] relates to Normal Human foreskin fibroblasts (HFF). Nature of the test: Methylene Blue Growth Inhibition Assay, HFF. The format is cell-based. Conditions: 72 h, Cell Line HFF, 3 days, read-out: MeB IC50. On the procedure:
as §1

T1 sequence (P53350 21-346): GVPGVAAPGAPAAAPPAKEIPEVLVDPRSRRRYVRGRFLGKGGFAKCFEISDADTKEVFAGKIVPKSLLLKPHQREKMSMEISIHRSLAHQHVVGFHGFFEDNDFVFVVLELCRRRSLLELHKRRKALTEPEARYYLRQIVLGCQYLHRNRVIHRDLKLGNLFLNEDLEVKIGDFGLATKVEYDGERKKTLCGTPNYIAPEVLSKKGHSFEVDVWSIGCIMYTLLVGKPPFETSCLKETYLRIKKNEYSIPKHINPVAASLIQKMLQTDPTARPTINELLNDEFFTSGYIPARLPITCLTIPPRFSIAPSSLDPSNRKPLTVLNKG

In the case of `COc1cc2ncn(-c3cc(OCc4ccccc4C(F)(F)F)c(C(N)=O)s3)c2cc1OCCCN(C)C` [Example 135, 5-[6-{[3-(Dimethylamino)propyl]oxy}-5-(methyloxy)-1H-benzimidazol-1-yl]-3-({[2-(trifluoromethyl)phenyl]methyl}oxy)-2-thiophenecarboxamide], the IC50 was under 1 µM in test [1]; under 1 µM in test [2]; under 1 µM in test [3]; under 1 µM in test [4]; 1 to 10 µM in test [5]; under 0.1 µM at PLK1 kinase domain. For the same compound, the IC50 in test [6] was in the range of 1 to 10 µM.
In the case of `COc1cc2ncn(-c3cc(OCC4CCCCO4)c(C(N)=O)s3)c2cc1OC` (centres unmarked) [Example 112, 5-(5,6-Dimethoxy-1H-benzimidazol-1-yl)-3-(tetrahydro-2H-pyran-2-ylmethoxy)thiophene-2-carboxamide], the IC50 in test [1] is 1 to 10 µM; in test [2] it was 1 to 10 µM; in test [3], over 10 µM; in test [4], over 10 µM; in test [5], over 10 µM; on PLK1 kinase domain, 0.1 to 10 µM. In test [6], the IC50 was over 10 µM.
For the compound `NC(=O)c1sc(-n2cnc3ccccc32)cc1NS(=O)(=O)c1ccccc1` [Example 132, 5-(1H-Benzimidazol-1-yl)-3-[(phenylsulfonyl)amino]thiophene-2-carboxamide], the IC50 in test [1] is over 10 µM; in test [2] it was over 10 µM; in test [3] it was over 10 µM; in test [4], over 10 µM; in test [5] it was over 10 µM; on PLK1 kinase domain it was under 0.1 µM. In test [6], the IC50 is over 10 µM.
Consider `NC(=O)c1sc(-n2cnc3cc4c(cc32)OC(F)(F)O4)cc1OCc1ccccc1C(F)(F)F` [Example 88, 5-(2,2-Difluoro-5H-[1,3]dioxolo[4,5-f]benzimidazol-5-yl)-3-{[2-(trifluoromethyl)benzyl]oxy}thiophene-2-carboxamide], for which the IC50 in test [1] is over 10 µM; in test [2], over 10 µM; in test [3], over 10 µM; in test [4], 1 to 10 µM; in test [5], over 10 µM; at PLK1 kinase domain, 0.1 to 10 µM. For the same compound, in test [6], the IC50 is over 10 µM.
In the case of `COc1cc2ncn(-c3cc(OCc4ccc(C(N)=O)cc4)c(C(N)=O)s3)c2cc1OC` [Example 104, 3-{[4-(Aminocarbonyl)benzyl]oxy}-5-(5,6-dimethoxy-1H-benzimidazol-1-yl)thiophene-2-carboxamide], the IC50 in test [1] is 1 to 10 µM; in test [2], 1 to 10 µM; in test [3], 1 to 10 µM; in test [4], 1 to 10 µM; in test [5], over 10 µM; on PLK1 kinase domain, under 0.1 µM. Also, the IC50 in test [6] is over 10 µM.
Turning to `COc1cc2ncn(-c3cc(OS(=O)(=O)c4ccccc4C)c(C(=O)O)s3)c2cc1OC` [Example 151, 5-(5,6-Dimethoxy-1H-benzimidazol-1-yl)-3-{[(2-methylphenyl)sulfonyl]oxy}thiophene-2-carboxylic acid], the IC50 was over 10 µM in test [1]; over 10 µM in test [2]; over 10 µM in test [3]; over 10 µM in test [4]; over 10 µM in test [5]; under 0.1 µM on PLK1 kinase domain. In test [6], the IC50 was over 10 µM.
With `COc1cc2ncn(-c3cc(OCc4ccccc4S(C)(=O)=O)c(C(N)=O)s3)c2cc1OC` [Example 99, 5-(5,6-Dimethoxy-1H-benzimidazol-1-yl)-3-{[2-(methylsulfonyl)benzyl]oxy}thiophene-2-carboxamide], the IC50 in test [1] is 1 to 10 µM; in test [2], 1 to 10 µM; in test [3] it was 1 to 10 µM; in test [4], 1 to 10 µM; in test [5] it was over 10 µM; at PLK1 kinase domain it was under 0.1 µM. Further, the IC50 in test [6] is over 10 µM.
Turning to `COc1cc2ncn(-c3cc(OCc4ccccc4C(F)(F)F)c(C(N)=S)s3)c2cc1OC` [Example 145], the IC50 in test [1] is over 10 µM; in test [2] it was over 10 µM; in test [3], over 10 µM; in test [4], over 10 µM; in test [5], over 10 µM; on PLK1 kinase domain, under 0.1 µM. Moreover, in test [6], the IC50 is over 10 µM.
